For experiment [1], the target named is ClpP1P2 (Mycobacterium tuberculosis (strain ATCC 25618 / H37Rv)) (UniProt P9WPC5+P9WPC3). The experiment in a line: Inhibition of N-terminal His6-SUMO-tagged Mtb ClpP1 (7 to 200 residues)/ClpP2 (13 to 214 residues) complex expressed in Escherichia coli BL21(DE3) using Z-Gly-Gly-Leu-AMC as substrate at 10 uM incubated for 40 mins in presence of Bz-LL by fluorescence based assay.

In experiment [2] the target is ClpP1P2 (Mycobacterium tuberculosis (strain ATCC 25618 / H37Rv), UniProt P9WPC3+P9WPC5). The experiment in a line: Binding affinity to N-terminal His6-SUMO-tagged Mtb ClpP1 (7 to 200 residues)/ClpP2 (13 to 214 residues) complex expressed in Escherichia coli BL21(DE3) assessed as increase in thermal stability measured at 25 to 110 degreeC in presence of Bz-LL by DSF assay. Background: Differential scanning fluorimetry follows unfolding on heating by fluorescence.
Chain of ClpP1P2 (P9WPC5 whole entry, the tested form may be a part): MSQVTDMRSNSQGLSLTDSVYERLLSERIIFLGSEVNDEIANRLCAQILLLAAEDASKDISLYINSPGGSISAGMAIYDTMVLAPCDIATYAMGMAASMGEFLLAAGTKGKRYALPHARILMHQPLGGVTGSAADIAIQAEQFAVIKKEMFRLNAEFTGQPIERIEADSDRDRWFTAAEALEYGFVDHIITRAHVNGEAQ
Chain of ClpP1P2 (P9WPC3 whole entry, the tested form may be a part): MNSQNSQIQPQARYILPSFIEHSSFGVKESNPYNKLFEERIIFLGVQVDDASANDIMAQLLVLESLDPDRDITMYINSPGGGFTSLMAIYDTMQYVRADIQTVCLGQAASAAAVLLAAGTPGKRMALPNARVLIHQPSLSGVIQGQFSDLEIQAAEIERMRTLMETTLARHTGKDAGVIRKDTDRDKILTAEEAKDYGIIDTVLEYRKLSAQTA

Experiment [3] can be described thus: Inhibition of full-length human ClpP complex ([…]) expressed in Escherichia coli BL21(DE3) using Ac-WLA-AMC as substrate measured for 60 mins in presence of Bz-LL by fluorescence based assay.
A short description of experiment [4]: Inhibition of full-length Escherichia coli ClpP complex/Escherichia coli ClpX delta N mutant (62 to 425 residues) expressed in Escherichia coli BL21(DE3) using FITC-casein as substrate measured for 1 hr in presence of Bz-LL/ATP by fluorescence based assay.
A short description of experiment [5]: Inhibition of full-length Staphylococcus aureus ClpP complex/Escherichia coli ClpX delta N mutant (62 to 425 residues) expressed in Escherichia coli BL21(DE3) using FITC-casein as substrate measured for 1 hr in presence of Bz-LL/ATP by fluorescence based assay.
Experiment [6] in a line: Selectivity index, ratio of IC50 for full-length Escherichia coli ClpP complex expressed in Escherichia coli BL21(DE3) using Suc-LY-AMC as substrate to IC50 for N-terminal His6-SUMO-tagged Mtb ClpP1 (7 to 200 residues)/ClpP2 (13 to 214 residues) complex expressed in Escherichia coli BL21(DE3).

The text below walks through data of ChEMBL document CHEMBL5375995, “Discovery and Mechanistic Study of Novel Mycobacterium tuberculosis ClpP1P2 Inhibitors” (J Med Chem, 2023).

Calls of active or inactive are those of the source. No cut-off for these calls is given here.

Broadly, the EC50 is the concentration giving half of the maximal effect. The term IC50 denotes the concentration that inhibits the measured activity by half. In the case of `COc1cc2c(Oc3ccc4[nH]c(C)cc4c3F)ncnc2cc1OCCCN1CCCC1` [CEDIRANIB], in experiment [1], the inhibition entry is “Active”. Moreover, in experiment [2], the EC50 turned out to be 29 µM. Moreover, the IC50 in experiment [3] was 37.5 µM; in experiment [4], 358 µM; in experiment [5] it was 234 µM. Also, the Ratio IC50 in experiment [6] was above 170.
